Experimental findings from patent publication US20240398784A1, “C-LINKED ISOQUINOLINE AMIDES AS LRRK2 INHIBITORS, PHARMACEUTICAL COMPOSITIONS, AND USES THEREOF” (Merck Sharp & Dohme LLC, priority 2021, published 2024) are described below.

One test deals with LRRK2 G2019S (Homo sapiens, UniProt Q5S007, G2019S). Put plainly: LRRK2 G2019S Km ATP LanthaScreen assay. In kind it is biochemical.
Chain of LRRK2 G2019S (Q5S007 whole entry G2019S): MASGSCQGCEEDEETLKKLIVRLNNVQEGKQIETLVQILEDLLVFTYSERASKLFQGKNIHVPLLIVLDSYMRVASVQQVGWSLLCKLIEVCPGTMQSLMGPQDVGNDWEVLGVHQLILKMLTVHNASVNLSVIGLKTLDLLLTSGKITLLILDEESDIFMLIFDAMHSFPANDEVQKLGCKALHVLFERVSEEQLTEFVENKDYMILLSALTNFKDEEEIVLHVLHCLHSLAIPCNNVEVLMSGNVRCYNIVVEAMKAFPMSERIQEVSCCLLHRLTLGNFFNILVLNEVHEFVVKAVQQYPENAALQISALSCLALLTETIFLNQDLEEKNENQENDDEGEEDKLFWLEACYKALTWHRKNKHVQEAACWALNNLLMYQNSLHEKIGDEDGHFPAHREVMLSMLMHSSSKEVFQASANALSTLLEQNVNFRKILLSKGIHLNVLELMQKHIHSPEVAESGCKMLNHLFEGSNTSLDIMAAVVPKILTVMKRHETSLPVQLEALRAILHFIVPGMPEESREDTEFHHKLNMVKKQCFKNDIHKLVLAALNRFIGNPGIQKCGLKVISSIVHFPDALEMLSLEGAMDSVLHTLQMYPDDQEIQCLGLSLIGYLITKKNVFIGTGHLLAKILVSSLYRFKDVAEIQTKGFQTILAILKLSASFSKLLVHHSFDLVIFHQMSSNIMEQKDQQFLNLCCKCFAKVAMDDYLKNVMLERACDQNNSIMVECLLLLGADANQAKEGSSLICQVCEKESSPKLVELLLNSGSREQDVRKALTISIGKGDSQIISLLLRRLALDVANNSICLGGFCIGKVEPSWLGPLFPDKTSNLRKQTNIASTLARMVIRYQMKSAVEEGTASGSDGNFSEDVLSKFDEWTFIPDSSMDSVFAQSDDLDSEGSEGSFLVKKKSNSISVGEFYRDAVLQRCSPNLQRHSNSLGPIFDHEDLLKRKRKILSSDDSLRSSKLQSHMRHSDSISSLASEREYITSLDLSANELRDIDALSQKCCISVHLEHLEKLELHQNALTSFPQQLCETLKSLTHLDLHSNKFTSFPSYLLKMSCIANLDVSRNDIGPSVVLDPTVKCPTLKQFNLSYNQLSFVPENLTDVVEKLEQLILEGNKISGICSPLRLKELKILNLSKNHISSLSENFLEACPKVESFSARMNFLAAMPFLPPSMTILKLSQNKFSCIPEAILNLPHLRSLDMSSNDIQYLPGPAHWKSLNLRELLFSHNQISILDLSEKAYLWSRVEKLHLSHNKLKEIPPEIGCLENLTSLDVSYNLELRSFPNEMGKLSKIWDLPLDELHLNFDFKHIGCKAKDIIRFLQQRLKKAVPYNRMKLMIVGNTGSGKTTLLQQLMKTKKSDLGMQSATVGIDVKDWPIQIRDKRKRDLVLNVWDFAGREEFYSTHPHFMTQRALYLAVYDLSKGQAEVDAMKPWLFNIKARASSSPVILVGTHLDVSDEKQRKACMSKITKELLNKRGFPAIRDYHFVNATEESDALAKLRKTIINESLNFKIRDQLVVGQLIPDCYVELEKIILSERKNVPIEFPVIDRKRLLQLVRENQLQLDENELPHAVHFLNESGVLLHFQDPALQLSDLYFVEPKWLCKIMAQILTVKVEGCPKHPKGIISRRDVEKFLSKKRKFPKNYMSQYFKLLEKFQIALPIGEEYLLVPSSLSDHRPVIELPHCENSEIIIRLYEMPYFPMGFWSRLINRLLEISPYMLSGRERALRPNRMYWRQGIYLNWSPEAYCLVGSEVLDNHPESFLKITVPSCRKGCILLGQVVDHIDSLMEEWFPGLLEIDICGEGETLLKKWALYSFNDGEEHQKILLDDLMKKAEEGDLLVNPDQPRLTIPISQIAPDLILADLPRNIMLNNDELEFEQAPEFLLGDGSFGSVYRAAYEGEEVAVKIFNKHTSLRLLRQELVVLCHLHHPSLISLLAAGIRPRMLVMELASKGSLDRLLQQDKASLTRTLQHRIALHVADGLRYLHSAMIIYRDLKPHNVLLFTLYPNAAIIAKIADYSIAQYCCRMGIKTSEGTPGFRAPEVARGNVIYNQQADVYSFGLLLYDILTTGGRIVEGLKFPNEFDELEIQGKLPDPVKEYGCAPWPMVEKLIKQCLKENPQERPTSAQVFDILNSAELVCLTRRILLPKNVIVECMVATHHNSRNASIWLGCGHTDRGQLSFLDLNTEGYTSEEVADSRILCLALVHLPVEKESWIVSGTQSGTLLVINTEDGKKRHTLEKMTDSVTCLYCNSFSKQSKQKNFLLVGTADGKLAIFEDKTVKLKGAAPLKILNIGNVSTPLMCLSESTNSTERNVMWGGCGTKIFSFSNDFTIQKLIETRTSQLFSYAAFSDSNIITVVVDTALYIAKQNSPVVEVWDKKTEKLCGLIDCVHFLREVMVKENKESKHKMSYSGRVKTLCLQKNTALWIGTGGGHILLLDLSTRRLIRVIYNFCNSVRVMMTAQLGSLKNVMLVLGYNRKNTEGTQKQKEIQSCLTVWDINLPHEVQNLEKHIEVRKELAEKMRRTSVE
Conditions: not given
(Time-resolved FRET reads energy transfer from a long-lived donor to a nearby acceptor.)
On to `CC1(N2CCC(c3cc4cc(NC(=O)Cc5ccncc5)ncc4cc3Cl)CC2)COCC1O` (centres unmarked) [Ex-3.8], for which the “LRRK2 pIC50” value is given as 10.09.

The same test, now with this note: read-out: LRRK2 pIC50 (converted).
In the case of `N#CC1(c2ccc3cnc(NC(=O)C4CC4c4ccncc4)cc3c2)CC12CC2` (centres unmarked) [Ex-2.42], the IC50 is 2.34 nM.
On the same count and under the same terms, to `N#CC1(c2ccc3cnc(NC(=O)C4CCN(CC(F)(F)F)C4)cc3c2)CC12CC2` (centres unmarked) [Ex-2.43] belongs 31.6 nM.
Still for that read-out and setting: to `N#CC1(c2ccc3cnc(NC(=O)C4CCN(CC(F)(F)F)C4)cc3c2)CC12CC2` (centres unmarked) [Ex-2.44] belongs 39.8 nM; to `N#CC1(c2ccc3cnc(NC(=O)C4CC4c4cccnc4)cc3c2)CC12CC2` (centres unmarked) [Ex-2.45], 11.2 nM.
The same measure, in the same setting: to `N#CC1(c2ccc3cnc(NC(=O)C4CC4c4cccnc4)cc3c2)CC12CC2` (centres unmarked) [Ex-2.46] belongs 0.851 nM; to `Cn1ncc(C2CC2C(=O)Nc2cc3cc(C4(C#N)CC45CC5)ccc3cn2)c1C(F)(F)F` (centres unmarked) [Ex-2.47], 457 nM; to `Cn1ncc(C2CC2C(=O)Nc2cc3cc(C4(C#N)CC45CC5)ccc3cn2)c1C(F)(F)F` (centres unmarked) [Ex-2.48], 324 nM.
Regarding `Cc1cc2cnc(NC(=O)C3CCOC(C)(C)C3)cc2cc1C1CCN(C2(C)COCC2O)CC1` (centres unmarked) [Ex-2.49], the IC50 was 0.513 nM.
The same measure, in the same setting: to `Cc1cc2cnc(NC(=O)C3CCOC(C)(C)C3)cc2cc1C1CCN(C2(C)COCC2O)CC1` (centres unmarked) [Ex-2.50] belongs 7.41 nM; to `Cc1cc2cnc(NC(=O)C3C4CCOCC43)cc2cc1C1CCN(C2(C)COCC2O)CC1` (centres unmarked) [Ex-2.51], 0.759 nM; to `Cc1cc2cnc(NC(=O)C3C4CCOCC43)cc2cc1C1CCN(C2(C)COCC2O)CC1` (centres unmarked) [Ex-2.52], 0.676 nM.
On the same count and under the same terms, to `Cc1cc2cnc(NC(=O)C3CC3C(F)F)cc2cc1C1CCN(C2(C)COCC2O)CC1` (centres unmarked) [Ex-2.53] belongs 0.813 nM.
For `Cc1cc2cnc(NC(=O)C3CC3C(F)F)cc2cc1C1CCN(C2(C)COCC2O)CC1` (centres unmarked) [Ex-2.54], the IC50 is 0.49 nM.
Same read-out and setting: to `Cc1cc2cnc(NC(=O)C3CC3C(F)F)cc2cc1C1CCN(C2(C)COCC2O)CC1` (centres unmarked) [Ex-2.55] belongs 3.98 nM.
Still for that read-out and setting: to `Cc1cc2cnc(NC(=O)C3CC3C(F)F)cc2cc1C1CCN(C2(C)COCC2O)CC1` (centres unmarked) [Ex-2.56] belongs 1.58 nM.
`CC1(C)CC(C(=O)Nc2cc3cc(C4(C#N)CC45CC5)ccc3cn2)CCO1` (centres unmarked) [Ex-2.57]: the IC50 was 2.14 nM.
On the same count and under the same terms, to `CC1(C)CC(C(=O)Nc2cc3cc(C4(C#N)CC45CC5)ccc3cn2)CCO1` (centres unmarked) [Ex-2.58] belongs 11.2 nM.
The same measure, in the same setting: to `CC1(N2CCC(c3cc4cc(NC(=O)C5CCC(C(F)(F)F)OC5)ncc4cc3Cl)CC2)COCC1O` (centres unmarked) [Ex-2.59] belongs 5.13 nM; to `CC1(N2CCC(c3cc4cc(NC(=O)C5CCC(C(F)(F)F)OC5)ncc4cc3Cl)CC2)COCC1O` (centres unmarked) [Ex-2.60], 47.9 nM.
The same measure, in the same setting: to `CC1(N2CCC(c3cc4cc(NC(=O)C5CCC(C(F)(F)F)OC5)ncc4cc3Cl)CC2)COCC1O` (centres unmarked) [Ex-2.61] belongs 43.7 nM; to `CC1(N2CCC(c3cc4cc(NC(=O)C5CCC(C(F)(F)F)OC5)ncc4cc3Cl)CC2)COCC1O` (centres unmarked) [Ex-2.62], 5.13 nM; to `N#CC1(c2ccc3cnc(NC(=O)C4CC45CCOC5)cc3c2)CC12CC2` (centres unmarked) [Ex-2.63], 12.3 nM.
Turning to `N#CC1(c2ccc3cnc(NC(=O)C4CC45CCOC5)cc3c2)CC12CC2` (centres unmarked) [Ex-2.64], the IC50 is 10.5 nM.
The same measure, in the same setting: to `N#CC1(c2ccc3cnc(NC(=O)C4CC45CCOC5)cc3c2)CC12CC2` (centres unmarked) [Ex-2.65] belongs 25.7 nM; to `N#CC1(c2ccc3cnc(NC(=O)C4CC45CCOC5)cc3c2)CC12CC2` (centres unmarked) [Ex-2.66], 14.5 nM.
Same read-out and setting: to `Cn1ccc(C2CC2C(=O)Nc2cc3cc(C4(C#N)CC45CC5)ccc3cn2)n1` (centres unmarked) [Ex-2.71] belongs 5.75 nM; to `Cn1ccc(C2CC2C(=O)Nc2cc3cc(C4(C#N)CC45CC5)ccc3cn2)n1` (centres unmarked) [Ex-2.72], 3.31 nM.
In the case of `Cn1cc(N2CCC(C(=O)Nc3cc4cc(C5(C#N)CC56CC6)ccc4cn3)C2)cn1` (centres unmarked) [Ex-2.76], the IC50 was 26.3 nM.
On the same count and under the same terms, to `Cn1cc(N2CCC(C(=O)Nc3cc4cc(C5(C#N)CC56CC6)ccc4cn3)C2)cn1` (centres unmarked) [Ex-2.77] belongs 10.2 nM; to `Cn1ncc(C2CC2C(=O)Nc2cc3cc(C4(C#N)CC45CC5)ccc3cn2)c1Cl` (centres unmarked) [Ex-2.78], 16.2 nM; to `Cn1ncc(C2CC2C(=O)Nc2cc3cc(C4(C#N)CC45CC5)ccc3cn2)c1Cl` (centres unmarked) [Ex-2.79], 34.7 nM.
On the same count and under the same terms, to `CC1C(C(=O)Nc2cc3cc(C4CCN(C5(C)COCC5F)CC4)c(Cl)cc3cn2)C1c1cnn(C)c1` (centres unmarked) [Ex-2.80] belongs 0.0813 nM; to `CCOC1CC2(C1)CC2C(=O)Nc1cc2cc(C3CCN(C4(C)COCC4F)CC3)c(Cl)cc2cn1` (centres unmarked) [Ex-2.82], 0.0813 nM.
Still for that read-out and setting: to `Cn1ccc(C2CC2C(=O)Nc2cc3cc(C4CCN(C5(C)COCC5F)CC4)c(Cl)cc3cn2)n1` (centres unmarked) [Ex-2.84] belongs 0.0813 nM; to `CCC1C(C(=O)Nc2cc3cc(C4CCN(C5(C)COCC5F)CC4)c(Cl)cc3cn2)C1c1ccn(C)n1` (centres unmarked) [Ex-2.86], 0.0813 nM.
For the molecule `CC1(c2ccccn2)CC1C(=O)Nc1cc2cc(C3CCN(C4(C)COCC4O)CC3)c(Cl)cc2cn1` (centres unmarked) [Ex-2.90], the IC50 was 52.5 nM.
As to `CC1(c2ccccn2)CC1C(=O)Nc1cc2cc(C3CCN(C4(C)COCC4O)CC3)c(Cl)cc2cn1` (centres unmarked) [Ex-2.91], the IC50 is 240 nM.
Same read-out and setting: to `CC1(N2CCC(c3cc4cc(NC(=O)C5CC5C5CCOCC5)ncc4cc3Cl)CC2)COCC1F` (centres unmarked) [Ex-2.92] belongs 0.0813 nM.
Still for that read-out and setting: to `CC1(N2CCC(c3cc4cc(NC(=O)C5CCC5C#N)ncc4cc3Cl)CC2)COCC1F` (centres unmarked) [Ex-2.94] belongs 0.0813 nM.
The same measure, in the same setting: to `CC1(N2CCC(c3cc4cc(NC(=O)C5CC56CC6)ncc4cc3Cl)CC2)COCC1F` (centres unmarked) [Ex-2.96] belongs 0.0813 nM.
Consider `CCC1C(C(=O)Nc2cc3cc(C4CC45CC5)c(Cl)cc3cn2)C1c1cnn(C)c1` (centres unmarked) [Ex-2.98], for which the IC50 was 15.5 nM.
Regarding `CCC1C(C(=O)Nc2cc3cc(C4CC45CC5)c(Cl)cc3cn2)C1c1cnn(C)c1` (centres unmarked) [Ex-2.99], the IC50 is 117 nM.
Still for that read-out and setting: to `CC(C(=O)Nc1cc2cc(C3CCN(C4(C)CCOC4O)CC3)c(Cl)cc2cn1)C1CCOCC1` (centres unmarked) [Ex-2.104] belongs 0.661 nM; to `CC(C(=O)Nc1cc2cc(C3CCN(C4(C)COCC4O)CC3)c(Cl)cc2cn1)c1cnn(C)c1` (centres unmarked) [Ex-2.106], 0.288 nM; to `CC(C(=O)Nc1cc2cc(C3CCN(C4(C)COCC4O)CC3)c(Cl)cc2cn1)c1cnn(C)c1` (centres unmarked) [Ex-2.107], 0.661 nM.
With `CC(C(=O)Nc1cc2cc(C3(C#N)CC34CC4)ccc2cn1)c1cnn(C)c1` (centres unmarked) [Ex-2.108], the IC50 was 2.95 nM.
The same measure, in the same setting: to `CC(C(=O)Nc1cc2cc(C3(C#N)CC34CC4)ccc2cn1)c1cnn(C)c1` (centres unmarked) [Ex-2.109] belongs 1.91 nM; to `CC(C(=O)Nc1cc2cc(C3(C#N)CC34CC4)ccc2cn1)c1cnn(C)c1` (centres unmarked) [Ex-2.110], 0.575 nM.
Same read-out and setting: to `CC(C(=O)Nc1cc2cc(C3(C#N)CC34CC4)ccc2cn1)c1cnn(C)c1` (centres unmarked) [Ex-2.111] belongs 2.24 nM; to `CCC(=O)N1CCC(C(C)C(=O)Nc2cc3cc(C4(C#N)CC45CC5)ccc3cn2)CC1` (centres unmarked) [Ex-2.112], 135 nM; to `CCC(=O)N1CCC(C(C)C(=O)Nc2cc3cc(C4(C#N)CC45CC5)ccc3cn2)CC1` (centres unmarked) [Ex-2.113], 28.2 nM.
The same measure, in the same setting: to `CC1(N2CCC(c3cc4cc(NC(=O)[C@H]5CCCO5)ncc4cc3Cl)CC2)COCC1O` (some centres unmarked) [Ex-3.2] belongs 1.15 nM.
As to `CC1(N2CCC(c3cc4cc(NC(=O)C5(Cn6ccnc6)CC5)ncc4cc3Cl)CC2)COCC1O` (centres unmarked) [Ex-3.3], the IC50 is 3.31 nM.
For `CC1(N2CCC(c3cc4cc(NC(=O)C5CC5F)ncc4cc3Cl)CC2)COCC1O` (centres unmarked) [Ex-3.4], the IC50 was 1.55 nM.
On the same count and under the same terms, to `Cn1cc(C(=O)Nc2cc3cc(C4CCN(C5COCC5O)CC4)c(Cl)cc3cn2)cn1` (centres unmarked) [Ex-3.5] belongs 0.631 nM; to `CC1(N2CCC(c3cc4cc(NC(=O)Cc5ccccn5)ncc4cc3Cl)CC2)COCC1O` (centres unmarked) [Ex-3.6], 0.24 nM.
Take `CC1(N2CCC(c3cc4cc(NC(=O)Cc5cccnc5)ncc4cc3Cl)CC2)COCC1O` (centres unmarked) [Ex-3.7]: the IC50 is 0.0813 nM.
As for `CC1(N2CCC(c3cc4cc(NC(=O)Cn5cc(Cl)cn5)ncc4cc3Cl)CC2)COCC1O` (centres unmarked) [Ex-3.9], the IC50 was 0.977 nM.
Consider `CC1(N2CCC(c3cc4cc(NC(=O)Cn5ccc(C(F)(F)F)n5)ncc4cc3Cl)CC2)COCC1O` (centres unmarked) [Ex-3.10], for which the IC50 is 1 nM.
Same read-out and setting: to `CC1(N2CCC(c3cc4cc(NC(=O)Cc5cnn(C(F)F)c5)ncc4cc3Cl)CC2)COCC1O` (centres unmarked) [Ex-3.11] belongs 0.631 nM.
Consider `Cn1cc(CC(=O)Nc2cc3cc(C4CCN(C5(C)COCC5O)CC4)c(Cl)cc3cn2)c(Cl)n1` (centres unmarked) [Ex-3.12], for which the IC50 is 0.251 nM.
Still for that read-out and setting: to `CC(=O)Nc1cc2cc(C3CCN(C4COC4)CC3)c(Cl)cc2cn1` [Ex-7.1, N-(7-chloro-6-(1-(oxetan-3-yl)piperidin-4-yl)isoquinolin-3-yl)acetamide] belongs 11.5 nM; to `CC1(C(=O)Nc2cc3cc(C4CCN(C5COC5)CC4)c(Cl)cc3cn2)CC1` [Ex-7.3, N-(7-chloro-6-(1-(oxetan-3-yl)piperidin-4-yl)isoquinolin-3-yl)-1-methylcyclopropane-1-carboxamide], 16.6 nM.
On the same count and under the same terms, to `O=C(Nc1cc2cc(C3CCN(C4COC4)CC3)c(Cl)cc2cn1)C1CCC1` [Ex-7.4, N-(7-chloro-6-(1-(oxetan-3-yl)piperidin-4-yl)isoquinolin-3-yl)cyclobutanecarboxamide] belongs 5.89 nM.
Consider `O=C(Nc1cc2cc(C3CCN(C4COC4)CC3)c(Cl)cc2cn1)C1CCCC1` [Ex-7.5, N-(7-chloro-6-(1-(oxetan-3-yl)piperidin-4-yl)isoquinolin-3-yl)cyclopentanecarboxamide], for which the IC50 is 5.5 nM.
In the case of `O=C(Nc1cc2cc(C3CCN(C4COC4)CC3)c(Cl)cc2cn1)C1CC1` [Ex-7.6, N-(7-chloro-6-(1-(oxetan-3-yl)piperidin-4-yl)isoquinolin-3-yl)cyclopropanecarboxamide], the IC50 was 2.14 nM.
Same read-out and setting: to `CC1(N2CCC(c3cc4cc(NC(=O)C56CC(C5)C6)ncc4cc3Cl)CC2)COC1` [Ex-7.7, N-(7-chloro-6-(1-(3-methyloxetan-3-yl)piperidin-4-yl)isoquinolin-3-yl)bicyclo[1.1.1]pentane-1-carboxamide] belongs 9.12 nM.
